This data set in a line: method code SF, from DOI: 10.1021/jf00070a034.

Consider `CN(C)C(=O)Nc1cccc(Cc2ccccc2)c1`, for which the logP was determined as 2.83.
As for `CC(C)CNC(=O)Nc1ccc(Cl)c(Cl)c1`, the figure is 4.48; as for `CNC(=O)Nc1cccc(OC)c1`, 1.26.
The figure for `CCNc1nc(Cl)nc(NC2CC2)n1` is 2.13; for `CCNc1nc(Cl)nc(NC2CCCCC2)n1` it is 3.63.
As for `CCCc1ccc(NC(=O)N(C)C)cc1`, the figure is 2.55; as for `O=C(Cc1ccccc1)Nc1ccc([N+](=O)[O-])cc1`, 3.17.
Consider `CCCC(C)C(=O)Nc1ccc(C)c(Cl)c1` (stereo not drawn), for which the logP amounted to 4.31.
The figure for `CN(C)C(=O)Nc1ccc(Cl)cc1` is 2.01; for `CN(C)C(=O)Nc1cccc(CCc2ccccc2)c1` it is 3.21.
As for `O=C(Cc1ccccc1)Nc1ccccc1`, the figure is 2.72; as for `CCNc1nc(Cl)nc(NC2CCC2)n1`, 2.77.
The figure for `C=CC(C)C(=O)Nc1ccc(Cl)c(Cl)c1` (stereo not drawn) is 3.49; for `CCNc1nc(Cl)nc(NCC2CC2)n1` it is 2.85; for `CCCC(C)(C)C(=O)Nc1ccc(Cl)cc1` it is 3.83.
As to `C=CCNc1nc(Cl)nc(NCC=C)n1`, the log partition coefficient (logP) is 2.75.
The compound `CCCCCC(C)Nc1nc(Cl)nc(NCC)n1` (stereo not drawn) gave a logP of 4.74.
The figure for `CC1(NC(=O)Nc2ccccc2)CCCCC1` is 3.6.

The record behind these values is the SangsterLogP compilation.
